Each structure is given as a SMILES string. Read-outs that look alike come from different tables or passages of the source.

Consider six compounds from patent EP4671239A1, “ARYL SUBSTITUENT-CONTAINING DEGRADATION AGENT FOR CDK12/13, PREPARATION METHOD THEREFOR, AND PHARMACEUTICAL COMPOSITION AND USE THEREOF” (Shanghai Institute of Organic Chemistry, Chinese Academy of …, priority 2023, dated 2024).

A short description of series [1]: Pharmacokinetics and bioavailability test in rats (Example 60). In kind it is in vivo. Particulars: SD rats. Here is the method: (§1) Pharmacokinetics and bioavailability tests in rats. SD rats were given a single oral (10 mg/kg), intravenous (2.5 mg/kg) and intraperitoneal (10 mg/kg) dose, followed by animal blood sample collection at appropriate time points. Heparin was added for anticoagulation, and the samples were centrifuged at 8000 rpm for 6 min. The supernatant was collected and stored at -20°C for HPLC-MS analysis. The blood samples underwent protein precipitation with acetonitrile at 12 000 rpm * 10 min, and the supernatant was used for HPCL-MS analysis. The data underwent parameter fitting with DAS2.0, to obtain compartmental model and non-compartmental model parameters, respectively. The oral bioavailability of the compounds was calculated based on the area under the plasma concentration-time curve (AUC) data. […] Table 2. Pharmacokinetic experimental results of compounds YJZ9069 and YJZ1102

The subject of series [2] is CDK12 and CDK13 proteins. The experiment in a line: Degradation activity on CDK12/13 in 22RV1 cells (Western Blot). In kind it is cell-based. Particulars: 22RV1 cells. The protocol: Experimental methods: The cell line, 22RV1 cell line was purchased from the American Type Culture Collection (ATCC). Conventional Western Blot was used for detection as follows: 22RV1 cells were seeded in a certain number in a 12-well plate, and cultured overnight in an incubator in an adherent manner. […] The cells were lysed with a lysis buffer, and samples were collected. Then, an appropriate amount of the samples was taken for SDS-PAGE electrophoresis. After electrophoresis, the proteins were transferred to nitrocellulose membranes using a semi-dry electro-transfer system. The nitrocellulose membrane was placed in a blocking solution (5% skim milk powder diluted in TBS containing 0.1% Tween 20) and blocked at room temperature for 2 h. The membranes were then placed in a primary antibody solution (1: 1000 diluted in TBS containing 0.1% Tween 20), respectively, and incubated at 4°C overnight. The cells were washed three times with TBS containing 0.1% Tween 20, each time for 15 min. The membrane was placed in a secondary antibody solution (horseradish peroxidase-labeled goat anti-rabbit IgG, diluted at 1:1000 in TBS containing 0.1% Tween 20) and reacted at room temperature for 1 h. After washing the membrane three times as above, the membrane was developed with ECL plus reagent and photographed using Amersham Imager 600 system.
A general note: A western blot detects proteins with antibodies after separation by electrophoresis.

The test system of series [3] is phosphorylation of serine at position 2 (phoSer2) of the C-terminal domain of RNA polymeraseII (RNA Pol II). Description: Phosphorylation of Ser2 of the RNA Pol II C-terminal domain in 22RV1 cells (Western Blot). In kind it is cell-based. Particulars: different concentrations (FIG. 4B). Here is the method:
Experimental methods: The cell line, 22RV1 cell line was purchased from the American Type Culture Collection (ATCC). Conventional Western Blot was used for detection as follows: 22RV1 cells were seeded in a certain number in a 12-well plate, and cultured overnight in an incubator in an adherent manner. Then, a certain concentration of compounds was added to act for 6 hours. The cells were lysed with a lysis buffer, and samples were collected. Then, an appropriate amount of the samples was taken for SDS-PAGE electrophoresis. After electrophoresis, the proteins were transferred to nitrocellulose membranes using a semi-dry electro-transfer system. The nitrocellulose membrane was placed in a blocking solution (5% skim milk powder diluted in TBS containing 0.1% Tween 20) and blocked at room temperature for 2 h. The membranes were then placed in a primary antibody solution (1: 1000 diluted in TBS containing 0.1% Tween 20), respectively, and incubated at 4°C overnight. The cells were washed three times with TBS containing 0.1% Tween 20, each time for 15 min. The membrane was placed in a secondary antibody solution (horseradish peroxidase-labeled goat anti-rabbit IgG, diluted at 1:1000 in TBS containing 0.1% Tween 20) and reacted at room temperature for 1 h. […]

Series [4] relates to triple negative breast cancer cells MDA-MB-231. The experiment in a line: Proliferation-inhibiting activity on MDA-MB-231 cells (Cell Counting Kit-8). In kind it is cell-based. Particulars: Homo sapiens, 120 h; MDA-MB-231 cell line, 5 days, cck-8 (FIG. 3). The protocol: The cell proliferation-inhibiting activity of the compounds was determined using Cell Counting Kit-8 Cell Viability Assay (Selleck.cn). The cells were seeded into a 384-well plate (CORNING® PS 3701) containing the corresponding culture medium and incubated in an incubator at 37°C with 5% CO2. After overnight incubation, a high-concentration stock solution of each compound to be tested was prepared; the compound was added to the 384-well plate according to a concentration gradient using an Echo® 650 Liquid Handler (LABCYTE®). After administration, the cell plate was placed in an incubator at 37°C with 5% CO2 and incubated for 5 days. Then, 5 µL of cck-8 reagent was added to each well of the 384-well plate using MULTIDROP® (Thermo Scientific™), and the plate was returned to the incubator for incubation for 1.5-2 h. After incubation, the plate was removed and centrifuged to remove bubbles. The absorbance of each well at 450 nm and 650 nm was obtained using EnVision® (PerkinElmer®). GraphPad Prism software (GraphPad Software Inc.) was used to process and analyze the data.
On the technique in general: Tetrazolium assays rely on reduction of a dye to a coloured formazan, in cell work by metabolically active cells.

In series [5] the test system is Cyclin K. The experiment in a line: Degradation of partner protein Cyclin K in MDA-MB-231 cells (Western Blot). As to conditions: for time dependence of degradation of Cyclin K: WB (FIG. 2); for degradation of Cyclin K protein: after 15 hours. In kind it is cell-based. Here is the method: (§2) Experimental methods: The cell line MDA-MB-231 was purchased from the American Type Culture Collection (ATCC). Conventional Western Blot was used for detection, as follows: MDA-MB-231 cells were seeded at a density of 2 x 10^5/mL in a 12-well plate, with 1 mL per well, and cultured overnight in an incubator in an adherent manner. Then, a certain concentration of compounds was added to act for 15 h. The cells were lysed with a lysis buffer, and protein samples were collected. An appropriate amount of the sample was taken for SDS-PAGE electrophoresis. After electrophoresis, the protein was transferred to a polyvinylidene fluoride (PVDF) membrane using a wet electro-transfer system. The PVDF membrane after electro-transfer was cut into several required strips, which were then placed in a blocking solution (5% skim milk powder diluted in TBS containing 0.1% Tween 20) and blocked at room temperature for 1.5 h. A primary antibody solution was prepared by diluting a primary antibody against the corresponding target protein in TBS containing 0.1% Tween 20 according to the dilution requirements of different antibodies, such as 1:1000 (CST), 1:3000 (Proteintech, Bethyl), and 1:200 (Santacruz). The blocked membrane was placed in the corresponding primary antibody solution and incubated at 4°C for 12-14 h. Then, the cells were washed three times with TBS containing 0.1% Tween 20, each time for 5 min. After washing, the membrane was placed in a secondary antibody solution (horseradish peroxidase-labeled goat anti-rabbit IgG, diluted at 1:2000 in TBS containing 0.1% Tween 20) and reacted at room temperature for 2 h. After washing the membrane three times as above, the membrane was developed with StarSignal plus reagent (GenStar®) and Omni-ECL reagent (Yazyme®), and photographed with Amersham Imager 800 system.

Series [6] has as its system CDK12 and CDK13 proteins. Description: Degradation activity on CDK12/13 in MDA-MB-231 cells (Western Blot). As to conditions: for degradation of CDK12 and CDK13 protein levels in cells: 0.1µM or 0.3µM, 15 h, WB (FIG. 1); for degradation of CDK12 and CDK13 proteins: 1 µM, 15 hours. In kind it is cell-based. Here is the method: as §2
Series [7] can be described thus: Pharmacokinetics and bioavailability test in rats (Example 57). In kind it is in vivo. Particulars: SD rats; for AUC(0-inf) / Tmax / MRT last / MRT inf: rat, plasma; for MRT last: read-out: MRT(0-t); for MRT inf: read-out: MRT(0-∞). Here is the method: as §1, with “Table 1.” for “Table 2.”, “of compound zlc-4-93” for “of compounds YJZ9069 and YJZ1102”
For series [8], the system named is CDK12 and CDK13 proteins. Description: Degradation activity on CDK12/13 in MDA-MB-231 cells (Western Blot). In kind it is cell-based. As to conditions: WB (FIG. 2A).

A word on the Cmax: it is the maximum level reached in the sampled fluid or tissue. What is called Tmax is the time at which the peak concentration occurs. For orientation: clearance means the volume of plasma or blood freed of the substance per unit of time. As a reminder, the half-life is the time in which the quantity being followed falls by half. High values mean slow decline, low ones rapid decline. On to `O=C1CCC(N2C(=O)c3cccc(OCC(=O)N4CCN(c5ccc(N(C(=O)NCc6ccccc6)[C@H]6CC[C@H](Nc7ncc8ccccc8n7)CC6)cc5)CC4)c3C2=O)C(=O)N1` (stereo partly drawn) [YJZ9069], for which the F in series [1] (PO 10 mg/kg, bioavailability calculated from AUC) is listed as 5.04%. For the same compound, in series [1] (rat, in vivo, IV 2.5 mg/kg), the Cmax was determined as 3510 ng/mL, the Tmax is 0.08 h, the clearance is 14.1 mL/min/kg and the half-life is 4.39 h. Moreover, in series [1] (rat, in vivo, PO 10 mg/kg), the Cmax worked out at 121 ng/mL and the Tmax is 4 h. The “degradation of CDK12 and CDK13 proteins” value in series [2] (100 nM, 6 h (FIG. 5)) is “almost completely degrade”. For the same compound, the “degradation of CDK12 and CDK13 proteins” value in series [2] (0.5 µM, 15 hours) is on record as “almost completely degraded”. Also, the “degradation of CDK12 and CDK13 protein levels in cells” value (shortened to “degradation … in cells”) in series [2] (500 nM, 6 hours, WB (FIG. 4)) is listed as “effectively degrade”. The “dose dependence of degradation of CDK12 and CDK13 proteins” value in series [2] (different concentrations, 6 h (FIG. 4B, FIG. 5)) is reported as “dose-dependent manner”. Besides, in series [3], the “phosphorylation of serine at position 2 (phoSer2) of RNA Pol II CTD” value is recorded as “inhibited in a dose-dependent manner”.

What is called IC50 is the concentration at which inhibition is half-maximal. A higher IC50 goes with weaker potency in that assay. In general, AUC(0-inf) refers to the area under the concentration-time curve extrapolated to infinity. A lower AUC(0-inf) goes with low exposure. The compound `N#Cc1ccc(N[C@H]2CC[C@H](N(C(=O)NCc3ccccc3)c3ccc(N4CCN(C5CCN(c6cc7c(cc6F)C(=O)N(C6CCC(=O)NC6=O)C7=O)CC5)CC4)cc3)CC2)nc1` (stereo partly drawn) [ZLC4-91] had an IC50 in series [4] of 622 nM. Further, in series [5], the “time dependence of degradation of Cyclin K” value was “time-dependent degradation effect” and the “degradation of Cyclin K protein” value is “almost completely degraded”. For the same compound, in series [6], the “degradation … in cells” value is listed as “effectively degrade”; the “degradation of CDK12 and CDK13 proteins” value was “almost completely degraded”. Also, the F in series [7] (Oral 10 mg/kg, bioavailability calculated from AUC) is 46.80%. For the same compound, in series [7] (summary in words of Table 1), the oral pharmacokinetic properties result is recorded as “excellent”. In addition, in series [7] (iv, i.v. 2.5 mg/kg), the AUC(0-inf) stood at 6880 ng·h/mL, the Tmax was found to be 0.08 h, the MRT last is 2.2 h and the MRT inf was 2.32 h. For the same compound, in series [7] (Oral 10 mg/kg), the area under the curve AUC(0-inf) turned out to be 12800 ng·h/mL, the Tmax stood at 4.67 h, the MRT last is 6.09 h and the MRT inf is 6.21 h. Besides, the “time dependence of degradation of CDK12 and CDK13 proteins” value in series [8] was “time-dependent manner”.

In turn, `N#Cc1ccc(N[C@H]2CC[C@H](N(C(=O)NCc3ccccc3)c3ccc(N4CCN(CC5CN(c6ccc7c(c6)C(=O)N(C6CCC(=O)NC6=O)C7=O)C5)CC4)cc3)CC2)nc1` (stereo partly drawn) [ZLC5-6] displayed an IC50 in series [4] of 498 nM. Besides, the “degradation … in cells” value in series [6] is given as “effectively degrade”.

`N#Cc1ccc(N[C@H]2CC[C@H](N(C(=O)NCc3ccccc3)c3ccc(N4CCC(N5CCN(c6ccc7c(c6)C(=O)N(C6CCC(=O)NC6=O)C7=O)CC5)CC4)cc3)CC2)nc1` (stereo partly drawn) [ZLC5-11]: in series [5], the “time dependence of degradation of Cyclin K” value is given as “time-dependent degradation effect” and the “degradation of Cyclin K protein” value is listed as “almost completely degraded”. Also, in series [6], the “degradation … in cells” value is given as “effectively degrade”; the “degradation of CDK12 and CDK13 proteins” value is reported as “almost completely degraded”. Moreover, the “time dependence of degradation of CDK12 and CDK13 proteins” value in series [8] was “time-dependent manner”.

The compound `N#Cc1ccc(N[C@H]2CC[C@H](N(C(=O)NCc3ccccc3)c3ccc(N4CCN(C(=O)C5CCN(c6ccc7c(c6)C(=O)N(C6CCC(=O)NC6=O)C7=O)CC5)CC4)cc3)CC2)nc1` (stereo partly drawn) [ZLC5-31] yielded an IC50 in series [4] of 389 nM. For the same compound, in series [6], the “degradation … in cells” value is listed as “effectively degrade”.

In series [4], `N#Cc1ccc(N[C@H]2CC[C@H](N(C(=O)NCc3ccccc3)c3ccc(N4CCN(C[C@H]5CCN(c6ccc7c(c6)C(=O)N(C6CCC(=O)NC6=O)C7=O)C5)CC4)cc3)CC2)nc1` (stereo partly drawn) [ZLC6-1] displayed an IC50 of 289 nM. The “degradation … in cells” value in series [6] is “effectively degrade”.
